Patent publication US7915012B2, “Methods for screening for inhibitors of TRPV2 activation” (Korea University Industry and Academic Collaboration …, priority 2008, dated 2011)
One block for each compound: values may come before it.

Key:
[1] = target: T1, rTRPV2 (Rattus norvegicus, UniProt Q9WUD2, A713V/L151P/T158I); assay: Whole-cell voltage-clamp recording in TRPV2 transfected HEK293T cell line; format: cell-based
T1 construct: expressed in transfected cells; host or cells: HEK293T (ATCC CRL-11268)
T1 sequence (Q9WUD2 1-761 L151P/T158I/A713V): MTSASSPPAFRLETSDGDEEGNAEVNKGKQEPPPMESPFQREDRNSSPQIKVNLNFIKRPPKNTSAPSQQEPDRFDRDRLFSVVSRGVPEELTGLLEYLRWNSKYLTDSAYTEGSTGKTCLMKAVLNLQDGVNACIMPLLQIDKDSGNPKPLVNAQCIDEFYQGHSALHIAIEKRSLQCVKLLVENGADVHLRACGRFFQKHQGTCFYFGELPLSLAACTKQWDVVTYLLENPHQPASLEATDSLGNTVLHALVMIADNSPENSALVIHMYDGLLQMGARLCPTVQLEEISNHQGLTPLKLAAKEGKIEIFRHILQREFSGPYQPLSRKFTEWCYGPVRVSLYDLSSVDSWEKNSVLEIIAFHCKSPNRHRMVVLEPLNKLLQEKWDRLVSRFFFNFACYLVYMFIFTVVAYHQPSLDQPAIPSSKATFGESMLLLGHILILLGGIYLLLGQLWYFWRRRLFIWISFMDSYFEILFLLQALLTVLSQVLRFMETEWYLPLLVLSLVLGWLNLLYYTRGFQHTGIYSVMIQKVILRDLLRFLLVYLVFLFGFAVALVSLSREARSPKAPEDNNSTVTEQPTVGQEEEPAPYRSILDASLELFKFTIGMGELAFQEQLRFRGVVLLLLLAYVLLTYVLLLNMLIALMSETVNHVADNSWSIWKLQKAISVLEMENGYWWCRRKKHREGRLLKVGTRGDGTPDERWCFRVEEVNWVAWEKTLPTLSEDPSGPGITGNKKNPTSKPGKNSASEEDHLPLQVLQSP
Description: HEK293T cell line (ATCC CRL-1 1268) was transiently transfected with plasmid DNA containing polynucleotide encoding […] (SEQ. ID. NO: 1), rTRPV2 (SEQ. ID. NO: 2), mTRPV3 (SEQ. ID. NO: 3), rTRPV4 (SEQ. ID. NO: 4), mTRPM8 (SEQ. ID. NO: 5) or mTRPA1 (SEQ. ID. NO: 6).
Particularly, the HEK293T cell line was transiently transfected with individual TRP channel plasmid (pcDNA3.1 containing polynucleotide encoding rTRPV1, rTRPV2, mTRPV3, rTRPV4, mTRPM8 or mTRPA1), and 600 ng/well of pCDNA3 (Invitrogen Corp., USA; containing green fluorescent protein (GFP) cDNA) using Fugene6 (Roche Diagnostics, USA) according to manufacturer's instruction. The transformed cells were cultured in DMEM/F12 containing 10% FBS and 1% penicillin/streptomycin in a CO2 incubator for 24 hours. The cells were replated onto poly-L-lysine-coated glass coverslips, followed by further culture for 10-24 hours.
The TRPV2 transfected cell line prepared in Example 1 was treated with 100 μM probenecid (Sigma-Aldrich, USA) and 300 μM 2-APB (2-aminoethoxydiphenyl borate; Cayman Chemical, USA), respectively. Stock solutions were made using water, DMSO or ethanol, and were diluted with test solutions before use.
Whole-cell voltage-clamp recording, one of the patch-clamp techniques, was performed with the transfected cell line of Example <1-1> according to the method of Bandel M, et al. (Neuron 41:849-857, 2004).
Particularly, the extracellular solution (140 mM NaCl, 5 mM KCl, 2 mM CaCl2, 1 mM MgCl2, 10 mM HEPES; titrated to pH 7.4 with NaOH) and the pipette solution (140 mM CsCl, 5 mM EGTA, 10 mM HEPES, 2.0 mM MgATP, 0.2 mM NaGTP; titrated to pH 7.2 with CsOH) were used. The potential was held at −60 mV for 250 ms, voltage-ramp pulsed from −80 mV to +80 mV for […] and returned to −60 mV for 250 ms, which was repeated without intersweep. This experiment was repeated 5 times.
The TRPV2 transfected cell line prepared by the method of Example 1 was treated with 100 μM probenecid, 100 μM probenecid+20 μM ruthenium red (Sigma-Aldrich, USA) and 300 μM 2-APB, respectively. […]

[2] = system: trigeminal neurons; assay: Whole-cell voltage-clamp recording in trigeminal neurons; format: cell-based, ICR mice; details: 20 μM ruthenium red + 100 μM probenecid
[3] = system: trigeminal neurons; assay: Calcium imaging of cultured trigeminal neurons; format: cell-based, ICR mice
Description: Trigeminal ganglia were dissected out of decapitated adult ICR mice in cold PBS and treated with 1.5 mg/ml of collagenase/dispase (Roche Diagnostics, USA) at 37° for 45 min, and then treated with 0.25% trypsin (Invitrogen, USA) for 15 min. The trigeminal neurons prepared thereby were then plated onto poly-L-lysinecoated coverslips in DMEM/F12 containing 10% FBS, 1% penicillin/streptomycin and 5 ng/ml of 2.5S NGF (Invitrogen, USA), followed by culture in a CO2 incubator for 48-72 hours.
Calcium imaging was performed with a confocal microscope (LSM5 Pascal, Carl Zeiss, Germany), and time-lapse images (excitation 488 nm/emission 514 nm) were collected every 3 seconds using Carl Zeiss ratio tool software (Carl Zeiss, Germany).
The trigeminal neurons prepared by the same manner as described in Example 2 were delayed-treated with 100 μM probenecid or 4 kinds of TRP activators: TRPM8 activator menthol 400 μM, TRPA1 activator cinnamaldehyde (MP Biomedicals, USA) 300 μM, TRPV1 activator capsaicin (Sigma-Aldrich, USA) 2 μM and TRPV1-3 activator 2-APB 300 μM.
The trigeminal neurons prepared by the same manner as described in Example 2 were treated with 300 μM 2-APB+100 μM probenecid, 300 μM 2-APB+2 μM capsaicin, 300 μM 2-APB+300 μM cinnamaldehyde+2 μM capsaicin, 300 μM 2-APB +2 μM capsaicin +100 μM probenecid, 300 μM 2-APB +400 μM menthol and 300 μM 2-APB, respectively.

inhibition of probenecid induced current response ([1]; 20 μM ruthenium red + 100 μM probenecid): inhibited
Compound: N.N.N.N.N.N.N.N.N.N.N.N.N.N.[Cl-].[Cl-].[Cl-].[Cl-].[Cl-].[Cl-].[O-2].[O-2].[Ru+3].[Ru+3].[Ru+4] [ruthenium red]
inhibition of probenecid induced currents in trigeminal neurons [2]: inhibited

Compound: COc1cc(CNC(=O)CCCC/C=C/C(C)C)ccc1O [capsaicin]
share of probenecid-sensitive neurons that responded to capsaicin ([3]; 2 μM capsaicin, 100 μM probenecid): 7.7% | share of the 2-APB-sensitive group that responded to capsaicin ([3]; 2 μM capsaicin, 300 μM 2-APB): 40.2%

Compound: NCCOB(c1ccccc1)c1ccccc1 [2-APB, 2-aminoethoxydiphenyl borate]
whole cell current (TRPV2 activation) ([1]; 300 μM 2-APB): equal response | neurons sensitive to 2-APB, share of the total neurons ([3]; 300 μM 2-APB): 46.8% | neurons with probenecid-induced calcium influx that responded to 2-APB ([3]; 300 μM 2-APB, 100 μM probenecid): 59 out of 60
